Consider 16 compounds from ChEMBL document CHEMBL3232999, “Computer-aided identification of novel 3,5-substituted rhodanine derivatives with activity against Staphylococcus aureus DNA gyrase” (Bioorg Med Chem, 2014).

≈ marks a conversion by molar mass, not a printed value. Calls of active or inactive are those of the source. No cut-off for these calls is given here.

In assay [1] the test system is Staphylococcus aureus. In words: Antimicrobial activity against Staphylococcus aureus ATCC 6538 after 24 hrs by two-fold serial dilution method. The following applies: ATCC 6538, 24 h. Type of assay: functional.
Assay [2] relates to Staphylococcus aureus. The assay can be described thus: Antimicrobial activity against methicillin-resistant Staphylococcus aureus ATCC 33592 after 24 hrs by two-fold serial dilution method. Type of assay: functional. The following applies: ATCC 33592, 24 h.
Assay [3] deals with T1, DNA gyrase (Staphylococcus aureus) (UniProt P0A0K8+P20831). The assay can be described thus: Inhibition of Staphylococcus aureus DNA gyrase-mediated supercoiling of relaxed DNA using N0471S as substrate at 160 uM after 30 mins by using […] staining-based agarose gel electrophoresis. Type of assay: protein-complex assay.
T1 sequence (P0A0K8 2-644 limits assumed): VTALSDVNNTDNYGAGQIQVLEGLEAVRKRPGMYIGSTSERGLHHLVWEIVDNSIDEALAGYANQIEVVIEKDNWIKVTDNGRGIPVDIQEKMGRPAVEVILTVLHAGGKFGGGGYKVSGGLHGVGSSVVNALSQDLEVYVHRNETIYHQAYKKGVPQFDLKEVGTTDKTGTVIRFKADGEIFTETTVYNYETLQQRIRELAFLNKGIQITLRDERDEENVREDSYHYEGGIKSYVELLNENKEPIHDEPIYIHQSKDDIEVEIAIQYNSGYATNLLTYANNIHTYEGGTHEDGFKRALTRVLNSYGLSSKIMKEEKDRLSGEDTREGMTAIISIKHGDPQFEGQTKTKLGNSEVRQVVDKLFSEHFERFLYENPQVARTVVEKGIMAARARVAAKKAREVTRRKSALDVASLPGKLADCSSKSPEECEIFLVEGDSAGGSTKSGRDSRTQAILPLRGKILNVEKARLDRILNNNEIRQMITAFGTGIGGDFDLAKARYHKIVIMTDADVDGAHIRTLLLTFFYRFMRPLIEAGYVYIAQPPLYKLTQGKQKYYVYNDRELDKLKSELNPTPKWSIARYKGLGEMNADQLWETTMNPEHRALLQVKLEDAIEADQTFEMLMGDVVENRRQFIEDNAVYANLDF
T1 sequence (P20831 whole entry partner): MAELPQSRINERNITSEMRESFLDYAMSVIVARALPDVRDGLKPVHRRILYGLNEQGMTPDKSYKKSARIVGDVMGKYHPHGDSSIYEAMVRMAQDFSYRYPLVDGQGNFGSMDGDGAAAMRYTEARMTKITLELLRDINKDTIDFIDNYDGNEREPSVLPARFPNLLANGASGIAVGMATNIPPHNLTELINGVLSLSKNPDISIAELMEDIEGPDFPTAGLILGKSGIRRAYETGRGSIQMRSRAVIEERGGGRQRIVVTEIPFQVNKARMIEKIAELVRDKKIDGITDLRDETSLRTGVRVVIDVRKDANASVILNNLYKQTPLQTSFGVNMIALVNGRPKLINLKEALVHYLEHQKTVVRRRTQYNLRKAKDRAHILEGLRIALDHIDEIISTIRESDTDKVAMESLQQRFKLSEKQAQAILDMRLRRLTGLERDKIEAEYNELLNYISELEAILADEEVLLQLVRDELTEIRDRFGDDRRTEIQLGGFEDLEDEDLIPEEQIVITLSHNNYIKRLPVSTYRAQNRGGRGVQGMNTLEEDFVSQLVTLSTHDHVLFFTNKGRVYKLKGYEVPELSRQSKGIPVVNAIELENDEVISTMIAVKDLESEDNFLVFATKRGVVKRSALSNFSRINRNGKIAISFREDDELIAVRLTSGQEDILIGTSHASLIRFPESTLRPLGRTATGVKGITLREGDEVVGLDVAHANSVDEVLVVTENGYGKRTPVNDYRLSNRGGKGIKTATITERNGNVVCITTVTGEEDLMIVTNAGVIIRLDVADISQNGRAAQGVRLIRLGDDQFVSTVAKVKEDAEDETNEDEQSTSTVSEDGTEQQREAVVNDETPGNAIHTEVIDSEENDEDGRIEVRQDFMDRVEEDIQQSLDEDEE
Assay [4] deals with Staphylococcus aureus. In words: Antimicrobial activity against Staphylococcus aureus ISP 794 after 24 hrs by two-fold serial dilution method. The following applies: ISP 794, 24 h. Format: functional.
For assay [5], the system named is Escherichia coli. The assay can be described thus: Antimicrobial activity against Escherichia coli MG1655 after 24 hrs by two-fold serial dilution method. The settings on record: MG1655, 24 h. Format: functional.
The subject of assay [6] is Staphylococcus aureus. The assay can be described thus: Antimicrobial activity against Staphylococcus aureus carolina after 24 hrs by two-fold serial dilution method. Format: functional.
The subject of assay [7] is Escherichia coli. In words: Inhibition of Escherichia coli DNA gyrase-mediated supercoiling of relaxed DNA using N0471S as substrate after 30 mins by using […] staining-based agarose gel electrophoresis.
Assay [8] concerns the target T1, DNA gyrase (Staphylococcus aureus). In words: Inhibition of Staphylococcus aureus DNA gyrase-mediated supercoiling of relaxed DNA using N0471S as substrate at 20 uM after 30 mins by using […] staining-based agarose gel electrophoresis. Format: protein-complex assay.
Assay [9] shares this target. In words: Inhibition of Staphylococcus aureus DNA gyrase-mediated supercoiling of relaxed DNA using N0471S as substrate at 160 to 500 uM after 30 mins by using […] staining-based agarose gel electrophoresis. Format: protein-complex assay.
The target in assay [10] is DNA gyrase subunit B (Staphylococcus aureus) (UniProt P0A0K8). In words: Inhibition of Staphylococcus aureus DNA gyrase subunit B ATPase activity assessed as consumption of inorganic phosphate at 10 uM by PNP-based absorbance assay relative to control; values are per cent of control.
Sequence of DNA gyrase subunit B (Staphylococcus aureus) (P0A0K8 2-644 limits assumed): as the sequence (P0A0K8 2-644 limits assumed) above
For assay [11] the target is unchanged. In words: Inhibition of Staphylococcus aureus DNA gyrase subunit B ATPase activity assessed as consumption of inorganic phosphate at 30 uM by PNP-based absorbance assay relative to control; values are per cent of control.
The target is the same in assay [12]. The assay can be described thus: Inhibition of Staphylococcus aureus DNA gyrase subunit B ATPase activity assessed as consumption of inorganic phosphate at 100 uM by PNP-based absorbance assay relative to control; values are per cent of control.
In the next assay the target is DNA gyrase subunit B (Staphylococcus aureus, UniProt P0A0K8). The assay can be described thus: Inhibition of Staphylococcus aureus DNA gyrase subunit B ATPase activity assessed as consumption of inorganic phosphate by PNP-based absorbance assay.
Sequence of DNA gyrase subunit B (P0A0K8 whole entry): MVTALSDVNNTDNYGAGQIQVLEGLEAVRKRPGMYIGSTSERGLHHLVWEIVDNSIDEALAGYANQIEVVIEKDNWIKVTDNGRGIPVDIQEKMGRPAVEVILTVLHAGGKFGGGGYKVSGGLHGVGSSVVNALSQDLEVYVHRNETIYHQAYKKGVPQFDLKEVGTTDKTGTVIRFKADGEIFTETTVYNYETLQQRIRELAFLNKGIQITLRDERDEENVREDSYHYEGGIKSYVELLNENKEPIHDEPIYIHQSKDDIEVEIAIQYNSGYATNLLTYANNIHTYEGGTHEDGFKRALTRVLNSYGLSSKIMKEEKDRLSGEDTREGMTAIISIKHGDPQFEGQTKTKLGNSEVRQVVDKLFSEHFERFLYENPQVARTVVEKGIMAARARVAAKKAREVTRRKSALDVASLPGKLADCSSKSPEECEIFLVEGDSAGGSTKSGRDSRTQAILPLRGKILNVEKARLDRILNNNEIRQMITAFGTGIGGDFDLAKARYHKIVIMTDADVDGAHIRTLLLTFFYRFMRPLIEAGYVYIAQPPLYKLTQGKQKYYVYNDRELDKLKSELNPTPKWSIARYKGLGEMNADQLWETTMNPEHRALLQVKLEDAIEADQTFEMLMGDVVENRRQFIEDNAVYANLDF
The target in assay [13] is DNA gyrase subunit B (Staphylococcus aureus) (UniProt P0A0K8). In words: Inhibition of Staphylococcus aureus DNA gyrase subunit B ATPase activity assessed as consumption of inorganic phosphate at 300 uM by PNP-based absorbance assay relative to control; values are per cent of control.

For orientation: MIC means the least concentration at which growth counts as inhibited. Low values mean a more susceptible organism, high ones a less susceptible organism. Consider `NC(=O)NC(=O)COC(=O)c1ccc(Cl)c(S(=O)(=O)N(Cc2ccccc2)c2ccc(Cl)cc2)c1`, for which the MIC in the assay on Staphylococcus aureus [1] was found to be 125 µg/mL (≈ 233 µM); in the assay with Staphylococcus aureus [2], 500 µg/mL (≈ 932 µM).

As to `COc1cccc([C@@H]2Nc3c(ccc(C(=O)O)c3C)[C@H]3C=CC[C@H]32)c1`, the MIC against Staphylococcus aureus [1] was found to be 62.5 µg/mL (≈ 186 µM); in the assay on Staphylococcus aureus [2], 125 µg/mL (≈ 373 µM).

On to `COc1ccc(C(=O)C2=C(O)C(=O)N(CCc3c[nH]c4ccccc34)[C@@H]2c2ccccc2Cl)cc1`, for which the minimal inhibitory concentration (MIC) in the assay with Staphylococcus aureus [1] and with Staphylococcus aureus [2] was 253 µg/mL (≈ 520 µM) each time.

As for `Cc1cccc([C@]2(C)CC(C)(C)N(C(=O)CSc3nc[nH]n3)c3ccccc32)c1`, the MIC in the assay with Staphylococcus aureus [1] stood at 125 µg/mL (≈ 307 µM); against Staphylococcus aureus [2], 500 µg/mL (≈ 1230 µM).

In the case of `CCc1ccccc1N1C(=O)/C(=C/c2cccc(O)c2)SC1=S`, in assay [3], the inhibition entry is “Active”. Besides, the minimal inhibitory concentration (MIC) was 13.5 µM (≈ 4.61 µg/mL) against Staphylococcus aureus [4], more than 100 µg/mL against Escherichia coli [5] and 27 µM (≈ 9.22 µg/mL) with Staphylococcus aureus [6]. Further, in the assay on Escherichia coli [7], the inhibition result is “inactive”.

For `COc1cc([C@H]2OC[C@H]3[C@H]2CO[C@@H]3c2ccc(O)c(OC)c2)ccc1O`, the minimal inhibitory concentration (MIC) against Staphylococcus aureus [1] was 62.5 µg/mL (≈ 174 µM); against Staphylococcus aureus [2], 500 µg/mL (≈ 1400 µM).

As for `C/C(=N\NC(=O)c1nnn(-c2nonc2N)c1CN1CCc2ccccc21)c1ccc(O)cc1O`, the minimum inhibitory concentration (MIC) in the assay with Staphylococcus aureus [1] and in the assay with Staphylococcus aureus [2] was 525 µg/mL (≈ 1100 µM) throughout.

With `CO[C@@H]1[C@@H](OC(N)=O)[C@@H](O)[C@H](Oc2ccc3c(O)c(NC(=O)c4ccc(O)c(CC=C(C)C)c4)c(=O)oc3c2C)OC1(C)C` [NOVOBIOCIN], the MIC was less than 1.27 µM against Staphylococcus aureus [4], less than 1.27 µM in the assay on Staphylococcus aureus [6] and less than 1.95 µg/mL against Staphylococcus aureus [2]. Further, the inhibition result in the assay with Escherichia coli [7] was “inactive”.

In the case of `COc1cc([C@@H]2C3=C(CCCC3=O)Nc3[nH]c(SCc4ccccc4Cl)nc(=O)c32)ccc1O`, the minimal inhibitory concentration (MIC) against Staphylococcus aureus [1] and with Staphylococcus aureus [2] was 500 µg/mL (≈ 1010 µM) throughout.

One may read the residual activity as the activity still measured, relative to the control. By IC50 is commonly meant the midpoint of a concentration-inhibition curve. On to `O=C(O)C[C@H](C(=O)O)N1C(=O)/C(=C\c2ccc(-c3cc(Cl)ccc3Cl)o2)SC1=S`, for which the inhibition result (in assay [8]; in the assay with Escherichia coli [7]) was “inactive” in each case. Also, the inhibition entry in assay [9] was “Active”. Further, the residual activity in [10] came to 84%; in assay [11], 66%; in assay [12], 23%; in assay [13] it was 23%. The minimal inhibitory concentration (MIC) in the assay on Staphylococcus aureus [4] was 159 µM (≈ 75.1 µg/mL); in the assay with Escherichia coli [5] it was more than 100 µg/mL; in the assay on Staphylococcus aureus [6] it was 159 µM (≈ 75.1 µg/mL). Further, on DNA gyrase subunit B, the IC50 amounted to 30 µM.

As for `O=C(O)C[C@H](c1ccccc1)N1C(=O)/C(=C/c2ccccc2Cl)SC1=S`, the inhibition entry (in assay [8]; in the assay with Escherichia coli [7]) was “inactive” each time. In addition, the residual activity was determined as 84% in [10], 76% in assay [11], 52% in [12] and 25% in [13]. The figures for the MIC with Staphylococcus aureus [4], in the assay with Escherichia coli [5] and in the assay with Staphylococcus aureus [6] were 31 µM (≈ 12.5 µg/mL), more than 100 µg/mL and 46.5 µM (≈ 18.8 µg/mL), respectively. Moreover, the IC50 on DNA gyrase subunit B was 100 µM.

Consider `CC(=O)Oc1ccc([C@@H]2Oc3nc(SCc4ccccc4Cl)nnc3-c3ccccc3N2C(C)=O)cc1Br`, for which the MIC in the assay on Staphylococcus aureus [1] and in the assay on Staphylococcus aureus [2] was 512 µg/mL (≈ 838 µM) in each case.

In the case of `Cc1cccc(NS(=O)(=O)c2cc(C(N)=O)ccc2Cl)c1C`, the MIC against Staphylococcus aureus [1] and in the assay with Staphylococcus aureus [2] was 62.5 µg/mL (≈ 184 µM) each time.

As for `CCOC(=O)C1=c2s/c(=C/c3ccccc3I)c(=O)n2C(N)=C(C#N)[C@@H]1c1ccccc1I`, the minimum inhibitory concentration (MIC) against Staphylococcus aureus [1] and against Staphylococcus aureus [2] was 264 µg/mL (≈ 387 µM) each time.

With `O=C1C[C@H](c2cccc(O)c2)Nc2ccc3ccccc3c21`, the MIC against Staphylococcus aureus [1] and in the assay with Staphylococcus aureus [2] was 62.5 µg/mL (≈ 216 µM) throughout.

Regarding `COc1ccc(N(CC(=O)Nc2ccccc2C(N)=O)S(=O)(=O)c2ccccc2)c(OC)c1`, the MIC against Staphylococcus aureus [1] was found to be 62.5 µg/mL (≈ 133 µM); against Staphylococcus aureus [2] it was 250 µg/mL (≈ 532 µM).
